The values that follow come from patent US4105761A, “Anabolisant-androgenic compounds” (Roussel Uclaf, priority 1974, dated 1978).

Series [1] relates to castrated male rats (levator ani, seminal vesicules, prostate). As to the kind of experiment: Anabolisant-androgenic activity, Hershberger technique slightly modified (castrated rats, oral). The series is classed as in vivo, rat. Conditions: for Levator ani weight / Prostate weight / Seminal vesicules weight: oral, 10 days. The method, then: This test was effected using the technique of Hershberger [Proc. Soc. Exp. Biol. Med., Vol. 83 (1953), p. 175] slightly modified and groups of 5 male rats 19 to 21 days old were castrated and then were treated daily for 10 days by oral administration of the test product in a solution containing 0.5 ml of olive oil and 0.5 ml of water containing 0.25% of carboxymethylcellulose. The animals were killed 24 hours after the last treatment and the prostate and seminal vesicules were removed and fixed for 24 hours in a solution of 10% formol in physiological serum. They were then dissected and weighed and the levator ani was removed and weighed in a fresh state. The increase in the weight of the genital organs indicate the anabolisant-androgenic activity of 17β-n-amyloxy-Δ^4,9,11 -estratriene-3-one and the results are reported in Table I and compared to the results of other trienic steroids.

The next series deals with hepatic cells. In words: Hepatonocivity study (rabbit, oral, 4 consecutive days). The series is classed as in vivo. The method, then: 17β-n-amyloxy-Δ^4,9,11 -estratriene-3-one was orally administered for 4 consecutive days to a rabbit at a dose of 10 mg/kg and the animal was killed on the 5th day. […] (BSP).
The mark [2] stands for this setting: 10 mg/kg orally, 4 consecutive days.

For the compound `C=C(C)CO[C@H]1CC[C@H]2[C@@H]3CCC4=CC(=O)CCC4=C3C=C[C@]12C` [17β-(2'-methyl)allyloxy-Δ^4,9,11 estratriene 3-one], in series [1] (daily dose 20 μg/rat), the Levator ani weight was found to be 29.0 mg, the Prostate weight came to 34.1 mg and the Seminal vesicules weight turned out to be 17.0 mg. In series [1] (daily dose 100 μg/rat), the Levator ani weight was determined as 23.5 mg, the Prostate weight was determined as 39.0 mg and the Seminal vesicules weight was 16.7 mg. In series [1] (daily dose 500 μg/rat), this compound came in with a Levator ani weight of 37.5 mg, a Prostate weight of 66.2 mg and a Seminal vesicules weight of 52.3 mg.

In series [1] (daily dose 10 μg/rat), `CC(C)=CCO[C@H]1CC[C@H]2[C@@H]3CCC4=CC(=O)CCC4=C3C=C[C@]12C` [17β-(3'-methyl)but-2'-enyloxy Δ^4,9,11-estratriene-3-one] gave a Levator ani weight of 28.7 mg, a Prostate weight of 12.8 mg and a Seminal vesicules weight of 8.2 mg. For the same compound, in series [1] (daily dose 100 μg/rat), the Levator ani weight worked out at 49.2 mg, the Prostate weight was 39.0 mg and the Seminal vesicules weight is recorded as 36.7 mg.

For `C[C@]12C=CC3=C4CCC(=O)C=C4CC[C@H]3[C@@H]1CC[C@@H]2OCC1CC1` [17β-(cyclopropyl)-methoxy-Δ^4,9,11-estratriene-3-one], the Levator ani weight in series [1] (daily dose 10 μg/rat) is listed as 20.7 mg; in series [1] (daily dose 100 μg/rat) it was 33.3 mg; in series [1] (daily dose 1000 μg/rat), 49.2 mg. Further, the values for the Prostate weight in series [1] (daily dose 10 μg/rat), in series [1] (daily dose 100 μg/rat) and in series [1] (daily dose 1000 μg/rat) were 18.4 mg, 41.7 mg and 88.7 mg, respectively. The Seminal vesicules weight is 9.9 mg in series [1] (daily dose 10 μg/rat), 26.4 mg in series [1] (daily dose 100 μg/rat) and 97.1 mg in series [1] (daily dose 1000 μg/rat).

In series [1] (daily dose 10 μg/rat), `CC(C)CO[C@H]1CC[C@H]2[C@@H]3CCC4=CC(=O)CCC4=C3C=C[C@]12C` [17β-isobutyloxy-Δ^4,9,11-estratriene-3-one] had a Levator ani weight of 24.6 mg, a Prostate weight of 13.5 mg and a Seminal vesicules weight of 9.2 mg. In series [1] (daily dose 100 μg/rat), this compound displayed a Levator ani weight of 41.9 mg, a Prostate weight of 46.4 mg and a Seminal vesicules weight of 28.7 mg. In addition, in series [1] (daily dose 1000 μg/rat), the Levator ani weight worked out at 44.0 mg, the Prostate weight worked out at 104.8 mg and the Seminal vesicules weight was 116.0 mg.

For `CCCCCO[C@H]1CC[C@H]2[C@@H]3CCC4=CC(=O)CCC4=C3C=C[C@]12C` [17β-n-amyloxy-Δ^4,9,11-estratriene-3-one], the “anabolisant-androgenic activity compared to other Δ^4,9,11 -estratrienes” value in series [1] (administered orally, rats) is reported as “clearly much superior”. In series [1] (daily dose 10 μg/rat), the Levator ani weight is reported as 28.4 mg, the Prostate weight is 27.7 mg and the Seminal vesicules weight turned out to be 13.1 mg. In series [1] (daily dose 30 μg/rat), this compound registered a Levator ani weight of 47.1 mg, a Prostate weight of 44.7 mg and a Seminal vesicules weight of 23.5 mg. In series [1] (daily dose 90 μg/rat), this compound displayed a Levator ani weight of 53.1 mg, a Prostate weight of 79.0 mg and a Seminal vesicules weight of 64.0 mg. Besides, the “tolerance by the hepatic cells” value with hepatic cells (5 mg/kg) is given as “well tolerated”. In the series with hepatic cells (setting [2]), the “rate of oxalacetic transaminase (SGOT)” value is “increase” and the “rate of retention of bromosulfonephtalein (BSP)” value is listed as “without having caused a change”.

On to `CCCO[C@H]1CC[C@H]2[C@@H]3CCC4=CC(=O)CCC4=C3C=C[C@]12C` [17β-n-propyloxy-Δ^4,9,11-estratriene 3-one], for which, in series [1] (daily dose 100 μg/rat), the Levator ani weight is given as 25.3 mg, the Prostate weight came out at 33.5 mg and the Seminal vesicules weight turned out to be 14.9 mg. In addition, in series [1] (daily dose 1000 μg/rat), the Levator ani weight amounted to 38.7 mg, the Prostate weight came out at 74.4 mg and the Seminal vesicules weight amounted to 66.8 mg.
